Results as given in EPA's CvTdb concentration-time database.

Columns and labels:
Assay in all cases: concentration in plasma after dosing
Rat [1] = details: 11 min; dosed: Glyoxylic acid monohydrate; 50 mg/kg; iv; Female; Harlan Sprague Dawley
Rat [2] = details: dosed: Glyoxylic acid monohydrate, 50 mg/kg, iv, Female, Harlan Sprague Dawley
Rat [3] = details: dosed: Glyoxylic acid monohydrate, 50 mg/kg, iv, Female, Harlan Sprague Dawley; remark: listed apart in the source
Rat [4] = details: 14 min; dosed: Glyoxylic acid monohydrate; 50 mg/kg; iv; Male; Harlan Sprague Dawley
Rat [5] = details: dosed: Glyoxylic acid monohydrate, 50 mg/kg, iv, Female, Harlan Sprague Dawley; remark: listed apart in the source
Rat [6] = details: dosed: Glyoxylic acid monohydrate, 50 mg/kg, iv, Male, Harlan Sprague Dawley
Rat [7] = details: dosed: Glyoxylic acid monohydrate, 50 mg/kg, iv, Female, Harlan Sprague Dawley; remark: listed apart in the source
Rat [8] = details: dosed: Glyoxylic acid monohydrate, 50 mg/kg, iv, Female, Harlan Sprague Dawley; remark: listed apart in the source
Rat [9] = details: dosed: Glyoxylic acid monohydrate, 50 mg/kg, iv, Female, Harlan Sprague Dawley; remark: listed apart in the source
Rat [10] = details: dosed: Glyoxylic acid monohydrate, 50 mg/kg, iv, Female, Harlan Sprague Dawley; remark: listed apart in the source
Rat [11] = details: dosed: Glyoxylic acid monohydrate, 50 mg/kg, iv, Male, Harlan Sprague Dawley; remark: listed apart in the source
Rat [12] = details: dosed: Glyoxylic acid monohydrate, 50 mg/kg, iv, Female, Harlan Sprague Dawley; remark: listed apart in the source
Rat [13] = details: dosed: Glyoxylic acid monohydrate, 50 mg/kg, iv, Male, Harlan Sprague Dawley; remark: listed apart in the source
Rat [14] = details: dosed: Glyoxylic acid monohydrate, 50 mg/kg, iv, Female, Harlan Sprague Dawley; remark: listed apart in the source
Rat [15] = details: dosed: Glyoxylic acid monohydrate, 50 mg/kg, iv, Female, Harlan Sprague Dawley; remark: listed apart in the source
Rat [16] = details: dosed: Glyoxylic acid monohydrate, 50 mg/kg, iv, Female, Harlan Sprague Dawley; remark: listed apart in the source
Rat [17] = details: dosed: Glyoxylic acid monohydrate, 50 mg/kg, iv, Harlan Sprague Dawley
Rat [18] = details: dosed: Glyoxylic acid monohydrate, 50 mg/kg, iv, Female, Harlan Sprague Dawley; remark: listed apart in the source
Rat [19] = details: 14 min; dosed: Glyoxylic acid monohydrate; 50 mg/kg; iv; Female; Harlan Sprague Dawley
Rat [20] = details: 11 min; dosed: Glyoxylic acid monohydrate; 50 mg/kg; iv; Female; Harlan Sprague Dawley; remark: listed apart in the source

O.O=CC(=O)O [Glyoxylic acid monohydrate]
Details | concentration in plasma [ng/mL]
Rat [1] | 9560
Rat [4] | 7680
Rat [19] | 8370
Rat [20] | 11600

Details | concentration in plasma [ng/mL]
Rat [2], 0.5 h | 3380
Rat [2], 11 min | 12000
Rat [3], 0.5 h | 2690
Rat [3], 11 min | 10700
Rat [5], 5 min | 27700
Rat [5], 22 min | 3860
Rat [6], 0.3 h | 5910
Rat [6], 2 min | 92900
Rat [7], 0.3 h | 3380
Rat [7], 2 min | 70100
Rat [8], 5 min | 28600
Rat [8], 22 min | 3840
Rat [9], 2 min | 99000
Rat [9], 14 min | 6240
Rat [10], 0.5 h | 2850
Rat [10], 8 min | 15800
Rat [11], 2 min | 66100
Rat [11], 14 min | 5250
Rat [12], 0.5 h | 3360
Rat [12], 8 min | 14700
Rat [13], 0.3 h | 6320
Rat [13], 5 min | 34200
Rat [14], 0.5 h | 2820
Rat [14], 8 min | 16900
Rat [15], 0.3 h | 5270
Rat [15], 5 min | 26200
Rat [16], 8 min | 15800
Rat [16], 22 min | 3900
Rat [18], 8 min | 17400
Rat [18], 22 min | 4560

concentration in plasma [ng/mL], Rat [17]
Details | 0.3 h | 2 min | 5 min | 8 min | 11 min | 14 min | 22 min
Female | 4380 | 102000 | 24000 | 10100 | 11300 | 8040 | 3600
Male | 4850 | 63200 | 29800 | – | 9000 | 8390 | 4090
